One series addresses T1, DNA-PK kinase (Homo sapiens, UniProt P78527).
T1 construct: purchased Promega V4107
Put plainly: Inhibition assay of DNA-PK kinase (Promega kit, ADP-Glo chemiluminescence). Type of series: biochemical. To be noted: 50 µM ATP, 37° C., 60 min; read-out: IC50 (nM), inhibitory activity on DNA-PK kinase. As to the method:
The inhibitory activity of the compounds on DNA-PK kinase was measured by using a DNA-PK kinase assay kit (purchased from Promega, Cat.#: V4107, Lot: 0000366495). The results were quantified by chemiluminescence, and the detailed experimental protocol was as follows: • i. An ADP-fluorescence standard curve over a range of concentrations was plotted according to the kit instructions; • ii. […] The mixtures were mixed well, centrifuged (1000 rpm, 30 s), and incubated at 37° C. for 60 min; • iv. 5 µL of ADP-Glo™ Reagent was added to stop the reaction, which was then mixed well, centrifuged (1000 rpm, 30 s), and incubated at room temperature for 40 min; • v. 10 µL Kinase Detection Reagent was added, and the mixture was mixed well by shaking, centrifuged (1000 rpm, 30 s), and incubated at room temperature for 30 min; • vi. The […] was measured by using a microplate reader (Thermo fisher, Varioskan LUX).
For orientation: ADP-Glo turns the ADP formed in a reaction into a luminescent signal.

The nature of series [1]: Pharmacokinetic assay in ICR mice (i.v. and p.o.). Type of series: in vivo. As to conditions: mouse, plasma, male ICR mice; for half-life: read-out: T½ (converted); for bioavailability: po 10 mg/kg vs iv 1 mg/kg. As to the method: ICR mice were purchased from Beijing Vital River Laboratory Animal Technology Co., Ltd.
3.2 Experimental procedure • (1) Healthy male ICR mice (18-22 g) were prepared, with 18 mice for each compound. The mice were divided into 2 groups (an i.v. group and a p.o. group), with 9 mice per group. 3 mice were picked for blood collection at each time point. • (2) After the animals were fasted overnight (with free access to water), the compound of the present invention dissolved (or suspended) in a solvent of 5% DMSO and 95% 30% HP-β-CD (v:v) was administered via the tail vein (i.v., 1 mg/kg) or intragastrically (p.o., 10 mg/kg), respectively. • (3) For the i.v. group, 0.1 mL blood was collected from the submandibular vein 5 min, 15 min, 0.5 h, 1 h, 2 h, 4 h, 8 h, 12 h, and 24 h after administration, respectively, anticoagulated with EDTA-K2, and centrifuged at 4° C. for 5 min to obtain plasma, which was stored at -20° C. until testing. (4) For the p.o. group, 0.1 mL blood was collected from the submandibular vein before administration and 15 min, 0.5 h, 1 h, 2 h, 4 h, 6 h, 8 h, 12 h, and 24 h after administration, and treated in the same manner as that for the intravenous group. • (5) The concentration of the compound of the present invention in plasma was measured by LC/MS/MS. • (6) Calculation and fitting were performed with Analyst 1.6 from AB Company, and the results are shown in Table 3.

Like-named read-outs stand apart in the source and are kept apart here.

Consider `CCn1c(=O)n(C2CCOCC2)c2nc(Nc3cc(F)c(C(N)=O)cc3C)ncc21` [Compound 62, 4-((7-ethyl-8-oxo-9-(tetrahydro-2H-pyran-4-yl)-8,9-dihydro-7H-purin-2-yl)amino)-2-fluoro-5-methylbenzamide], for which the IC50 on DNA-PK kinase worked out at 4.17 nM. In series [1] (iv, 1 mg/kg), the AUC was 1190 ng·h/mL and the half-life is 1.69 h. Moreover, the bioavailability in series [1] stood at 44.8%. Besides, in series [1] (po, 10 mg/kg), the AUC was found to be 4720 ng·h/mL, the peak concentration (Cmax) amounted to 1850 ng/mL and the half-life is 3.01 h.

As for `Cc1cc(C#N)ccc1Nc1ncc2c(n1)n([C@H]1CC[C@@H](C#N)CC1)c(=O)n2C` [Compound 78, 4-((9-(cis-4-cyanocyclohexyl)-7-methyl-8-oxo-8,9-dihydro-7H-purin-2-yl)amino)-3-methylbenzonitrile], the IC50 on DNA-PK kinase was 0.038 nM. In series [1] (iv, 1 mg/kg), the AUC turned out to be 216 ng·h/mL and the half-life is 1.17 h. This compound also showed a bioavailability in series [1] of 65.2%. Moreover, in series [1] (po, 10 mg/kg), the AUC turned out to be 1200 ng·h/mL, the highest level (Cmax) was 446 ng/mL and the half-life is 3.5 h.

For the compound `COC(=O)c1cc(C)c(Nc2ncc3c(n2)n(C2CCOCC2)c(=O)n3C)cc1C#N` [Compound 45], on DNA-PK kinase, the IC50 turned out to be 13.5 nM.

With `Cc1cc(C(N)=O)c(F)cc1Nc1ncc2c(n1)n(C1CCCCC1)c(=O)n2C` [Compound 68, 4-((9-cyclohexyl-7-methyl-8-oxo-8,9-dihydro-7H-purin-2-yl)amino)-2-fluoro-5-methylbenzamide], on DNA-PK kinase, the concentration for half-maximal inhibition (IC50) came to 0.01 nM.

Turning to `Cc1cc(C(N)=O)c(O)cc1Nc1ncc2c(n1)n(C1CCOCC1)c(=O)n2C` [Compound 50, 2-Hydroxy-5-methyl-4-((7-methyl-8-oxo-9-(tetrahydro-2H-pyran-4-yl)-8,9-dihydro-7H-purin-2-yl)amino)benzamide], the half-maximal inhibitory concentration (IC50) at DNA-PK kinase turned out to be 12.7 nM.

With `Cc1cc(C#N)ccc1Nc1ncc2c(n1)n(C1CC3COCC3C1)c(=O)n2C` (centres unmarked) [Compound 100, 4-((9-(hexahydro-1H-cyclopenta[c]furan-5-yl)-7-methyl-8-oxo-8,9-dihydro-7H-purin-2-yl)amino)-3-methylbenzonitrile], the IC50 on DNA-PK kinase amounted to 2.2 nM.

Regarding `Cc1cc(C(N)=O)c(F)cc1Nc1ncc2c(n1)n(C1CCCC(O)C1)c(=O)n2C` (centres unmarked) [Compound 95, 2-Fluoro-4-((9-(-3-hydroxycyclohexyl)-7-methyl-8-oxo-8,9-dihydro-7H-purin-2-yl)amino)-5-methylbenzamide], the IC50 at DNA-PK kinase was 0.6 nM.

In the case of `Cc1cc(S(C)(=O)=O)ccc1Nc1ncc2c(n1)n(C1CCOCC1)c(=O)n2C` [Compound 1, 7-Methyl-2-((2-methyl-4-(methylsulfonyl)phenyl)amino)-9-(tetrahydro-2H-pyran-4-yl)-7,9-dihydro-8H-purin-8-one], the IC50 at DNA-PK kinase is 10.1 nM.

Consider `Cc1cc(C(N)=O)c(F)cc1Nc1ncc2c(n1)n(C1CCCC(C)(O)C1)c(=O)n2C` (centres unmarked) [Compound 91, 2-Fluoro-4-((9-(3-hydroxy-3-methylcyclohexyl)-7-methyl-8-oxo-8,9-dihydro-7H-purin-2-yl)amino)-5-methylbenzamide], for which the IC50 at DNA-PK kinase came out at 2.44 nM.

With `CO[C@H]1CC[C@H](n2c(=O)n(C)c3cnc(Nc4cc(F)c(C(N)=O)cc4C)nc32)CC1` [Compound 71, 2-Fluoro-4-((9-(trans-4-methoxycyclohexyl)-7-methyl-8-oxo-8,9-dihydro-7H-purin-2-yl)amino)-5-methylbenzamide], the IC50 on DNA-PK kinase was 2.17 nM.

For `Cc1cc(C(N)=O)c(F)cc1Nc1ncc2c(n1)n(C1CCC(O)C1)c(=O)n2C` (centres unmarked) [Compound 67, 2-Fluoro-4-((9-(3-hydroxycyclopentyl)-7-methyl-8-oxo-8,9-dihydro-7H-purin-2-yl)amino)-5-methylbenzamide], at DNA-PK kinase, the concentration for half-maximal inhibition (IC50) was determined as 2.96 nM.

Regarding `Cc1cc(C#N)ccc1Nc1ncc2c(n1)n(C1CCS(=O)(=O)CC1)c(=O)n2C` [Compound 101, 4-((9-(1,1-dioxidotetrahydro-2H-thiopyran-4-yl)-7-methyl-8-oxo-8,9-dihydro-7H-purin-2-yl)amino)-3-methylbenzonitrile], the IC50 at DNA-PK kinase was found to be 9.6 nM.

On to `Cc1cc(C(F)(F)F)ccc1Nc1ncc2c(n1)n(C1CCOCC1)c(=O)n2C` [Compound 3, 7-Methyl-2-((2-methyl-4-(trifluoromethyl)phenyl)amino)-9-(tetrahydro-2H-pyran-4-yl)-7,9-dihydro-8H-purin-8-one], for which, on DNA-PK kinase, the 50% inhibitory concentration (IC50) was determined as 18.6 nM.

Regarding `Cc1cc(C(N)=O)c(F)cc1Nc1ncc2c(n1)n(C1C[C@H]3CC(O)C[C@H]3C1)c(=O)n2C` (stereo partly drawn) [Compound 84, 2-Fluoro-4-((9-((3aR,6aS)-5-hydroxyoctahydropentalen-2-yl)-7-methyl-8-oxo-8,9-dihydro-7H-purin-2-yl)amino)-5-methylbenzamide], the half-maximal inhibitory concentration (IC50) on DNA-PK kinase is 0.24 nM.

Turning to `Cc1cc(=O)n(C)cc1Nc1ncc2c(n1)n(C1CCOCC1)c(=O)n2C` [Compound 56, 2-((1,4-Dimethyl-6-oxo-1,6-dihydropyridin-3-yl)amino)-7-methyl-9-(tetrahydro-2H-pyran-4-yl)-7,9-dihydro-8H-purin-8-one], the IC50 at DNA-PK kinase worked out at 14.3 nM.

For `Cc1cc(C(N)=O)c(F)cc1Nc1ncc2c(n1)n(C1CC3(CC(CO)C3)C1)c(=O)n2C` (centres unmarked) [Compound 97, 2-Fluoro-4-((9-(6-(hydroxymethyl)spiro[3.3]heptan-2-yl)-7-methyl-8-oxo-8,9-dihydro-7H-purin-2-yl)amino)-5-methylbenzamide], at DNA-PK kinase, the IC50 turned out to be 0.68 nM.

Consider `CO[C@H]1CC[C@@H](n2c(=O)n(C)c3cnc(Nc4cc(F)c(C(N)=O)cc4C)nc32)CC1` [Compound 70, 2-Fluoro-4-((9-(cis-4-methoxycyclohexyl)-7-methyl-8-oxo-8,9-dihydro-7H-purin-2-yl)amino)-5-methylbenzamide], for which, on DNA-PK kinase, the IC50 worked out at 4.14 nM.

For the compound `Cc1cc(C(N)=O)c(F)cc1Nc1ncc2c(n1)n(C13CCC(C#N)(CC1)CC3)c(=O)n2C` [Compound 90, 4-((9-(4-cyanobicyclo[2.2.2]octan-1-yl)-7-methyl-8-oxo-8,9-dihydro-7H-purin-2-yl)amino)-2-fluoro-5-methylbenzamide], the half-maximal inhibitory concentration (IC50) on DNA-PK kinase is 10.8 nM.

Take `Cc1cc(C(N)=O)c(F)cc1Nc1ncc2c(n1)n(C1CCOCC1)c(=O)n2C(C)C` [Compound 63, 2-Fluoro-4-((7-isopropyl-8-oxo-9-(tetrahydro-2H-pyran-4-yl)-8,9-dihydro-7H-purin-2-yl)amino)-5-methylbenzamide]: at DNA-PK kinase, the IC50 is 50.5 nM.

Consider `[2H]C([2H])([2H])NC(=O)c1cc(C)c(Nc2ncc3c(n2)n(C2CCOCC2)c(=O)n3C)cc1F` [Compound 37, 2-Fluoro-5-methyl-N-(methyl-d3)-4-((7-methyl-8-oxo-9-(tetrahydro-2H-pyran-4-yl)-8,9-dihydro-7H-purin-2-yl)amino)benzamide], for which the IC50 at DNA-PK kinase turned out to be 11.9 nM.

For `CCn1c(=O)n([C@H]2CCOC2)c2nc(Nc3cc(F)c(C(N)=O)cc3C)ncc21` [Compound 107, (S)((7-Ethyl-8-oxo-9-(tetrahydrofuran-3-yl)-8,9-dihydro-7H-purin-2-yl)amino)-2-fluoro-5-methylbenzamide], the half-maximal inhibitory concentration (IC50) on DNA-PK kinase stood at 10.1 nM.

Consider `CNC(=O)c1cc(C)c(Nc2ncc3c(n2)n(C2CCOCC2)c(=O)n3C)cc1F` [Compound 36, 2-Fluoro-N,5-dimethyl-4-((7-methyl-8-oxo-9-(tetrahydro-2H-pyran-4-yl)-8,9-dihydro-7H-purin-2-yl)amino)benzamide], for which the IC50 at DNA-PK kinase stood at 17.9 nM.

With `Cc1cc(C#N)ncc1Nc1ncc2c(n1)n(C1CCOCC1)c(=O)n2C` [Compound 17, 4-Methyl-5-((7-methyl-8-oxo-9-(tetrahydro-2H-pyran-4-yl)-8,9-dihydro-7H-purin-2-yl)amino)picolinonitrile], the IC50 on DNA-PK kinase came out at 28.7 nM.

What is called IC50 is the concentration that inhibits the measured activity by half. By AUC is commonly meant concentration integrated over time. Higher therefore signals high exposure. For orientation: bioavailability means dose-corrected exposure relative to a reference, in per cent. Higher therefore signals good availability. As usually defined, the Cmax is the highest concentration seen after dosing.
